Data on 1 substance can be found in patent publication US7745402B2, “Method of treating pancreatitis” (Lundbeck Inc., priority 2005, dated 2010).

Experiment [1] concerns HO-1. The experiment can be described thus: Double-staining of pancreas for HO-1 and cell markers after hemin and CDD. In kind it is in vivo, mice. The following applies: hemin pretreatment, 3 days of CDD. The text has this:
Pancreata of mice pretreated with hemin followed by 3 days of CDD feeding were isolated, sectioned, then double-stained using antibodies to HO-1 (a, d and g) and keratin polypeptide 8 (epithelial marker, b), vimentin (mesenchymal marker, e) or MJ7/18 (endothelial marker, h). Merging of the indicated images is shown in the right panels. Scale bar in panel i=20 μm. HO-1 staining of pancreas from mice treated with vehicle alone (without CDD) afforded background staining (inset of panel a).
(§1) Animal procedures. Mice were euthanized by CO2 inhalation then pancreata and lungs were rapidly removed, divided into 3-4 pieces, and blood was collected by intracardiac puncture. […] Immunofluorescence staining was performed as described (29) and images were analyzed using confocal microscopy. Total tissue lysates were prepared by homogenization in Laemmli sample buffer and analyzed by SDS-PAGE followed by transfer to membranes for blotting and protein visualization by enhanced chemiluminescence. Trypsin activity was determined using a fluorimetric assay and the substrate Boc-Gln-Ala-Arg-MCA (Peptides International Inc.; Louisville, Ky.), and comparison to a standard curve generated with purified trypsin as described. […] Lung injury after caerulein administration was assessed as previously described, based on neutrophilic infiltration, pulmonary edema, alveolar distension and collapse. […]

Experiment [2] concerns HO-1. Briefly: HO-1 immunoblot of mouse tissue/cell homogenates after hemin. In kind it is in vivo, mice. The following applies: for HO-1 induction: hemin 3× during 7 d. The method, then:
(A, B) Total tissue homogenates were obtained from pancreata of caerulein-injected or choline deficient diet (CDD)-fed mice. Two age and sex-matched mice were used for each time point. Homogenates were tested by blotting using antibodies to HO-1 or HO-2. (C) Mice (3 mice/condition) were given hemin by intraperitoneal injection (4× during one week, or 8× during two weeks). Two “control” mice were injected with vehicle alone. Pancreatic homogenates were then obtained and blotted with anti-HO-1/2. (D-F) Mice were injected with saline, hemin, or vehicle (8 mice/group)3×(arrows) followed by feeding with CDD for 3 d then harvesting of the pancreata. HO-1 and HO-2 were analyzed by blotting of pancreatic homogenates (3 mice/group). […] A representative hematoxylin and eosin staining of pancreata from mice that survived CDD feeding is shown (scale bar=50 μM).
FIG. 8: HO-1 expression and hemin-mediated induction in mouse tissues and cells. Mice were injected 3× during 7d with vehicle or hemin (2 mice/group) followed by harvesting of the indicated organs and cells then preparation of total tissue/cell homogenates. Protein concentrations of the homogenates were measured followed by SDS-PAGE separation (40 μg of protein/lane) then blotting using anti-HO-1 antibodies.
Hemin, vehicle and antibodies. […]
as §1, with “procedures.” for “procedures. Mice were euthanized by CO2 inhalation then pancreata and lungs were rapidly removed, divided into 3-4 pieces, and blood was collected by intracardiac puncture.”

The subject of the next experiment is HO-2. The experiment can be described thus: HO-2 immunoblot of mouse tissue homogenates after hemin. The following applies: any of the tissues; hemin 3× during 7 d. In kind it is in vivo, mice.
The test system of the next experiment is peritoneal cells. The experiment can be described thus: Effect of hemin on peritoneal cell number (cell counting, flow cytometry). In kind it is in vivo. To be noted: mice injected during a 7-day period, 3 per group, p 0.06 vs vehicle. The method, then:
The effect of hemin or vehicle on peritoneal cell number was assayed. Mice (3 per group) were injected with vehicle or hemin during a 7-day period. Peritoneal cells were then isolated followed by counting. Cell viability was greater than 98% using trypan blue exclusion. The number of cells that were double positive for Mac-1^+ and F4/80^+ was then determined using flow cytometry. P-values compared the hemin treated versus the vehicle treated groups.

Hemin: the “cell type of pancreatic HO-1 induction” value in the experiment with HO-1 [1] was “occurs in non-epithelial cells”. The HO-1 induction result with HO-1 [2] (bone marrow, spleen, brain) was “not in bone marrow, spleen or brain”; with HO-1 [2] (peritoneal cells, liver, pancreas and colon), “induction of HO-1 in peritoneal cells, liver, pancreas and colon (most prominent change being in pancreas)”. The “level of HO-1 induction on excessive dosing” value in the experiment with HO-1 [2] (pancreas, 8× during two weeks vs 4× during one week (FIG. 1C)) is reported as “excessive dosing decreases the level of HO-1 induction”. Moreover, the HO-2 levels entry in the experiment on HO-2 is listed as “did not change”. Besides, the Total cell number in the experiment on peritoneal cells was 7.3 ± 2.1 × 10^6.
